Data from ChEMBL document CHEMBL4811304, “Design, synthesis and biological evaluation of dual mTOR/HDAC6 inhibitors in MDA-MB-231 cells” (Bioorg Med Chem Lett, 2021).

target: T1, Serine/threonine-protein kinase mTOR (Homo sapiens, UniProt P42345); assay: Inhibition of mTOR (unknown origin) at 0.5 uM relative to control

inhibition	Compound
33.8%	COc1cc(OC)c2c(N3CCSCC3)nc(-c3ccc(C(=O)NO)cc3)nc2c1
67.6%	COc1cc(OC)c2c(N3CCN(C)CC3)nc(-c3ccc(C(=O)NO)cc3)nc2c1
18.2%	O=C(NO)c1ccc(-c2nc(N3CCC(F)(F)CC3)c3ccc(Cl)cc3n2)cc1
37.4%	O=C(NO)c1ccc(-c2nc(N3CCS(=O)(=O)CC3)c3ccccc3n2)cc1
67.3%	C[C@H]1COCCN1c1nc(-c2ccc(C(=O)NO)cc2)nc2ccccc12
75.5%	O=C(NO)c1ccc(-c2nc(N3CCOCC3)c3ccc(Cl)cc3n2)cc1
68.5%	C[C@@H]1COCCN1c1nc(-c2ccc(C(=O)NO)cc2)nc2ccccc12
44.9%	O=C(NO)c1ccc(-c2nc(N3CCSCC3)c3ccc(Cl)cc3n2)cc1
95.4%	Cn1c(=O)n(-c2ccc(C(C)(C)C#N)cc2)c2c3cc(-c4cnc5ccccc5c4)ccc3ncc21 [DACTOLISIB]
9.7%	COc1cc(OC)c2c(N3CCCC3)nc(-c3ccc(C(=O)NO)cc3)nc2c1
11.5%	COc1cc(OC)c2c(N3CCCCC3)nc(-c3ccc(C(=O)NO)cc3)nc2c1
11.3%	O=C(NO)c1ccc(-c2nc(N3CCCC3)c3ccccc3n2)cc1
39.7%	O=C(NO)c1ccc(-c2nc(N3CCS(=O)(=O)CC3)c3ccc(Cl)cc3n2)cc1
14.9%	O=C(NO)c1ccc(-c2nc(N3CCCCC3)c3ccc(Cl)cc3n2)cc1
78.8%	C[C@@H]1COCCN1c1nc(-c2ccc(C(=O)NO)cc2)nc2cc(Cl)ccc12
18.3%	O=C(NO)c1ccc(-c2nc(N3CCCC3)c3ccc(Cl)cc3n2)cc1
48.9%	COc1cc(OC)c2c(N3CCOCC3)nc(-c3ccc(C(=O)NO)cc3)nc2c1
82.3%	C[C@H]1COCCN1c1nc(-c2ccc(C(=O)NO)cc2)nc2cc(Cl)ccc12
34.8%	COc1cc(OC)c2c(N3CCS(=O)(=O)CC3)nc(-c3ccc(C(=O)NO)cc3)nc2c1
23.6%	O=C(NO)c1ccc(-c2nc(N3CCCCC3)c3ccccc3n2)cc1
76.8%	CN1CCN(c2nc(-c3ccc(C(=O)NO)cc3)nc3ccccc23)CC1
10.6%	COc1cc(OC)c2c(N3CCC(F)(F)CC3)nc(-c3ccc(C(=O)NO)cc3)nc2c1
57.2%	COc1cc(OC)c2c(N3CCOC[C@H]3C)nc(-c3ccc(C(=O)NO)cc3)nc2c1
60.1%	O=C(NO)c1ccc(-c2nc(N3CCOCC3)c3ccccc3n2)cc1
18.4%	O=C(NO)c1ccc(-c2nc(N3CCC(F)(F)CC3)c3ccccc3n2)cc1
44.7%	O=C(NO)c1ccc(-c2nc(N3CCSCC3)c3ccccc3n2)cc1
55.4%	COc1cc(OC)c2c(N3CCOC[C@@H]3C)nc(-c3ccc(C(=O)NO)cc3)nc2c1

target: T1, Serine/threonine-protein kinase mTOR; assay: Inhibition of mTOR (unknown origin)

IC50	Compound
3.8 nM	CCNC(=O)Nc1ccc(-c2nc3c(c(N4CCOC[C@@H]4C)n2)CCN(C2COC2)C3)cc1 [RG-7603]

target: T2, Protein deacetylase HDAC6 (Homo sapiens, UniProt Q9UBN7); assay: Inhibition of HDAC6 (unknown origin)
T2 sequence (Q9UBN7 whole entry): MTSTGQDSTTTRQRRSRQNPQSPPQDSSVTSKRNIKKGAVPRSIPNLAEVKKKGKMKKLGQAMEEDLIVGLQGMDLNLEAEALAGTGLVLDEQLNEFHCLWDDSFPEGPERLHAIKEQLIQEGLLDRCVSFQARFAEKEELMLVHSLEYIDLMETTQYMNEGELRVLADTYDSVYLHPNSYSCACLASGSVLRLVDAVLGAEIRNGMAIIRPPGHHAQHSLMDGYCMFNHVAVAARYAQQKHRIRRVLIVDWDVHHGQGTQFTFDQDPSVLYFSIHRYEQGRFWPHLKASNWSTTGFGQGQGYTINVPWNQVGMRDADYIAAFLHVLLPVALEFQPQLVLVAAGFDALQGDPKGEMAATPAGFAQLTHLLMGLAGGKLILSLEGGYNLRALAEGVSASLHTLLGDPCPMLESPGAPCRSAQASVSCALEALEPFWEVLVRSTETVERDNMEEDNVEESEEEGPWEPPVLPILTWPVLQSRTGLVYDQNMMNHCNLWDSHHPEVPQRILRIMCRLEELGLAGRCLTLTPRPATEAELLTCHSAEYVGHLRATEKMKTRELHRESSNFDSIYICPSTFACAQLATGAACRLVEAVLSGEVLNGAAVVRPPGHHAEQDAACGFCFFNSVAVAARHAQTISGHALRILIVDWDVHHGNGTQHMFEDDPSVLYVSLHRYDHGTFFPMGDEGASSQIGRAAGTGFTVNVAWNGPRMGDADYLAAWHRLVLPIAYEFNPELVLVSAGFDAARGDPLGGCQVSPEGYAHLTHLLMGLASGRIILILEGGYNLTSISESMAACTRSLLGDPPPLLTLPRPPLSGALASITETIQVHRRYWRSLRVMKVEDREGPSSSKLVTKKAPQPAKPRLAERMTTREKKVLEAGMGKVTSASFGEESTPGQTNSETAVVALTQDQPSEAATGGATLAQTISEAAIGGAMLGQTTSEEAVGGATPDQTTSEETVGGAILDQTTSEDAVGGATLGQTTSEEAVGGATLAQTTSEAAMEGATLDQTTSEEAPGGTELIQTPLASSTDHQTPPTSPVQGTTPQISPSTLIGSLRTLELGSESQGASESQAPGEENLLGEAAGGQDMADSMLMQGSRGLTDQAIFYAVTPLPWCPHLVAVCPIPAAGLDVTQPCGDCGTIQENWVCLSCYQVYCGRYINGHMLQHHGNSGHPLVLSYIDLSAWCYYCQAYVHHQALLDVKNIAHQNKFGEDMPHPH

IC50	Compound
2 nM	Cn1c(=O)n(-c2ccc(C(C)(C)C#N)cc2)c2c3cc(-c4cnc5ccccc5c4)ccc3ncc21 [DACTOLISIB]
